Experimental data: patent US20230293404A1, “Compositions Comprising Natural Polymers and One or More (Bio)-Alkanediols” (Symrise AG, priority 2020, published 2023)

Tests used:
[1] = tested on: microbial load of natural polymers; experiment: Microbial load of mixtures of natural polymers with alkanediols (plating, CFU count); type: cell-based, bacteria
Experimental: The following tests were performed to show the influence of different alkanediols on the microbial load of natural polymers.
A selection of natural polymers as specified in Table 1 was systematically analyzed in combination with different 1,2-alkanediols and 2,3-alkanediols (0.5%). The polymers were chosen to be representative from different polymer classes:
A mixture of the natural polymer (concentration as recommended by supplier) with water and 1,2-alkanediol (0.5%) or 2,3-alkanediol (0.5%) or a mixture of 1,2-alkanediol and 2,3-alkanediol (0.5% final concentration) was prepared, as representative of a cold formulation preparation processes, and directly sampled for determination of microbial load. Additionally, the mixtures were stored at 40° C. and again sampled for microbial load after 2 days and 7 days.
The microbial load of the mixtures was determined by plating 1000 μl (or respective dilutions of the material) on an agar plate based on universal bacterial growth medium (Caseinpepton-Sojamehlpepton-Bouillon, Merck 1.05459+Agar No. 1, Oxoid LP0011). The plates were then incubated at 37° C. for 5 days and then photo documented. In parallel, bacterial colonies were counted (CFU—colony forming units per ml).

[2] = Physical state of alkanediols and alkanediol mixtures at RTP; type: physicochemical; settings: at RTP (room temperature, normal pressure); FIG. 3 and FIG. 4
Source text: The term “liquid alkanediol” within the context of the present invention means an alkanediol component which is liquid at room or ambient temperature and under normal pressure, i.e. standard RTP conditions.
FIG. 3 is a photograph showing from left to right samples of the liquid 1,2-pentanediol, 1,2-hexanediol, 1,2-heptanediol, 2,3-heptanediol, 2,3-octanediol and 2,3-undecanediol in comparison to the solid 1,2-octanediol, 1,2-undecanediol, 1,2-nonanediol and the liquid 2,3-nonanediol. The first six alkanediols are liquid at RTP, whereas 1,2-octanediol, 1,2-nonanediol and 1,2-undecanediol are solid substances at RTP; 2,3-nonanediol is also liquid at RTP.
FIG. 4 is a representative photograph of samples of mixtures of 1,2-alkanediols with the respective 2,3-alkanediol. All mixtures are liquid. They are shown in the following order: 1,2-heptanediol (95%)+2,3-heptanediol (5%), 1,2-octanediol (95%)+2,3-octanediol (5%), and 1,2-nonanediol (95%)+2,3-nonanediol (5%).

[3] = Maximum solubility of alkanediols in water (visual assessment); type: physicochemical; settings: assessed at ambient temperature after 24 h storage at 5° C.; visual observation
Source text: The water solubility of a substance is the saturation mass concentration of the substance in water at a given temperature. The determination of the solubility in water relates to essentially pure substances which are stable in water and not volatile.
For the determination of the maximum water solubility of an alkanediol, water and different concentrations of the respective alkanediol were blended by stirring. […] The determination of whether the alkanediol has dissolved in water is based entirely on visual observation.

CCCCCC(O)C(C)O (centres unmarked) [2,3-octanediol]
Bacterial load (colony forming units) ([1]; Covathick (0.5%) in water + 0.5% 2,3-alkanediol, 2 days storage at 40° C.): 0 CFU per mL | Bacterial load (colony forming units) ([1]; Covathick (0.5%) in water + 0.5% 2,3-alkanediol, 7 days storage at 40° C.): 0 CFU per mL | Bacterial load (colony forming units) ([1]; Covathick (0.5%) in water + 0.5% 2,3-alkanediol, fresh): 4 CFU per mL | Bacterial load (colony forming units) ([1]; Genuvisco (0.5%) in water + 0.5% 2,3-alkanediol, 2 days storage at 40° C.): 0 CFU per mL | Bacterial load (colony forming units) ([1]; Genuvisco (0.5%) in water + 0.5% 2,3-alkanediol, 7 days storage at 40° C.): 0 CFU per mL | Bacterial load (colony forming units) ([1]; Genuvisco (0.5%) in water + 0.5% 2,3-alkanediol, fresh): 5 CFU per mL | Bacterial load (colony forming units) ([1]; Polycos-N 75 (0.5%) in water + 0.5% 2,3-alkanediol, 2 days storage at 40° C.): 0 CFU per mL | Bacterial load (colony forming units) ([1]; Polycos-N 75 (0.5%) in water + 0.5% 2,3-alkanediol, 7 days storage at 40° C.): 0 CFU per mL | Bacterial load (colony forming units) ([1]; Polycos-N 75 (0.5%) in water + 0.5% 2,3-alkanediol, fresh): 1 CFU per mL | Bacterial load (colony forming units) ([1]; Xanthan Gum (0.5%) in water + 0.5% 2,3-alkanediol, 2 days storage at 40° C.): 0 CFU per mL | Bacterial load (colony forming units) ([1]; Xanthan Gum (0.5%) in water + 0.5% 2,3-alkanediol, 7 days storage at 40° C.): 0 CFU per mL | Effect on the microbial load of the natural polymer solutions (in words) ([1]; directly after preparation of the mixtures as well as after 7 days storage, Table 3): superior antimicrobial activity | Physical state [2]: liquid | Maximum solubility in water [3]: 1.5 % by weight
